The results in this text go back to US20210347805A1, “AZITHROMYCIN DERIVATIVES CONTAINING A PHOSPHONIUM ION AS ANTICANCER AGENTS” (RISING TIDE FOUNDATION, priority 2018, published 2021).

The test system of the experiment is MDA-231 cancer cells. The experiment in a line: Inhibition of proliferation assay: cell confluence (IncuCyte live cell imaging). The format is cell-based. Conditions: MDA-231 cells, IncuCyte imaging over 4-5 d. From the text:
The confluence value is a surrogate for cell proliferation and growth. The value is expressed as a percent confluence, which represents the fraction of culture dish-surface that is occupied by cells. As the number of cells in the dish increases over time due to proliferation, so will their coverage of that surface increase. Expansion of the cell population on the cell culture-dish surface and confluence have mostly a linear relationship until the cells on the plate surface begin to reach saturation or maximum density. Confluence is determined based on image analysis. Image based software can identify objects in the image field base on changes to pixel density in a grey scale image. The software can then assign a mask to those pixels within the object. Objects can be ‘gated’ out based on size and shape. To determine cell confluence, images of cells are first masked as objects. The surface area of the image that is masked is measured and compared to the total surface area of the culture dish surface to obtain a percent confluence. MDA-231 cancer cells were obtained from ATCC. Cells were cultured in Dulbecco's Modified Eagle Medium (DMEM) supplemented with 10% Fetal Bovine Serum (FBS), 2 mM Glutamax, 1 mM Non Essential Amino Acid (NEAA) solution and 1 mM sodium pyruvate. […] Final DMSO concentrations were ≤0.1%. Images were acquired with an IncuCyte Live Cell Imaging microscopy (Essen Bioscience) at every 3 h under cell culture conditions with 10× objective over 4-5 d. Cell confluence was calculated from one field of view per well using the IncuCyte in-built algorithm. Relative confluence values were obtained by normalising each value to the time zero value in each sample.

Each structure is given as a SMILES string.

Consider `CC[C@H]1OC(=O)[C@H](C)[C@@H](O[C@H]2C[C@@](C)(OC)[C@@H](O)[C@H](C)O2)[C@H](C)[C@@H](O[C@@H]2O[C@H](C)C[C@H](N(C)C)[C@H]2O)[C@](C)(O)C[C@@H](C)CN(C)[C@H](C)[C@@H](O)[C@]1(C)O` [Azithromycin], for which the “% Confluence” value turned out to be 99.1% (compound at 10 μM) and 17% (compound at 100 μM).

Consider `CC[C@H]1OC(=O)[C@H](C)[C@@H](O[C@H]2C[C@@](C)(OC)[C@@H](O)[C@H](C)O2)[C@H](C)[C@@H](O[C@@H]2O[C@H](C)C[C@H](N(C)C)[C@H]2O)[C@](C)(O)C[C@@H](C)CN(C(=O)CCCCCCCCCCCCC[P+](c2ccccc2)(c2ccccc2)c2cnn(C)c2)[C@H](C)[C@@H](O)[C@]1(C)O.[Cl-]` [Example 1, {14-[(2R,3S,4R,5R,8R,10R,11R,12S,13S,14R)-11-{[(2S,3R,4S,6R)-4-(dimethylamino)-3-hydroxy-6-methyloxan-2-yl]oxy}-2-ethyl-3,4,10-trihydroxy-13-{[(2R,4R,5S,6S)-5-hydroxy-4-methoxy-4,6-dimethyloxan-2-yl]oxy}-3,5,8,10,12,14-hexamethyl-15-oxo-1-oxa-6-azacyclopentadecan-6-yl]-14-oxotetradecyl}(1-methyl-1H-pyrazol-4-yl)diphenylphosphonium chloride], for which, for the setting “compound at 10 μM”, the “% Confluence” value stood at 4.3%.

Take `CC[C@H]1OC(=O)[C@H](C)[C@@H](O[C@H]2C[C@@](C)(OC)[C@@H](O)[C@H](C)O2)[C@H](C)[C@@H](O[C@@H]2O[C@H](C)C[C@H](N(C)C)[C@H]2O)[C@](C)(O)C[C@@H](C)CN(C(=O)CCCCCCCCCCCC[P+](c2ccccc2)(c2ccccc2)c2cnn(C(C)C)c2)[C@H](C)[C@@H](O)[C@]1(C)O` [Example 2, {13-[(2R,3S,4R,5R,8R,10R,11R,12S,13S,14R)-11-{[(2S,3R,4S,6R)-4-(dimethylamino)-3-hydroxy-6-methyloxan-2-yl]oxy}-2-ethyl-3,4,10-trihydroxy-13-{[(2R,4R,5S,6S)-5-hydroxy-4-methoxy-4,6-dimethyloxan-2-yl]oxy}-3,5,8,10,12,14-hexamethyl-15-oxo-1-oxa-6-azacyclopentadecan-6-yl]-13-oxotridecyl}diphenyl[1-(propan-2-yl)-1H-pyrazol-4-yl]phosphonium chloride]: the “% Confluence” value (compound at 10 μM) is recorded as 5.1%.

As to `CC[C@H]1OC(=O)[C@H](C)[C@@H](O[C@H]2C[C@@](C)(OC)[C@@H](O)[C@H](C)O2)[C@H](C)[C@@H](O[C@@H]2O[C@H](C)C[C@H](N(C)C)[C@H]2O)[C@](C)(O)C[C@@H](C)CN(C(=O)CCCCCCCCCCC[P+](c2ccccc2)(c2ccccc2)c2cnn(C(C)(C)C)c2)[C@H](C)[C@@H](O)[C@]1(C)O` [Example 3, (1-tert-butyl-1H-pyrazol-4-yl)({12-[(2R,3S,4R,5R,8R,10R,11R,12S,13S,14R)-11-{[(2S,3R,4S,6R)-4-(dimethylamino)-3-hydroxy-6-methyloxan-2-yl]oxy}-2-ethyl-3,4,10-trihydroxy-13-{[(2R,4R,5S,6S)-5-hydroxy-4-methoxy-4,6-dimethyloxan-2-yl]oxy}-3,5,8,10,12,14-hexamethyl-15-oxo-1-oxa-6-azacyclopentadecan-6-yl]-12-oxododecyl})diphenylphosphonium chloride], the “% Confluence” value (compound at 10 μM) is 4%.

`CC[C@H]1OC(=O)[C@H](C)[C@@H](O[C@H]2C[C@@](C)(OC)[C@@H](O)[C@H](C)O2)[C@H](C)[C@@H](O[C@@H]2O[C@H](C)C[C@H](N(C)C)[C@H]2O)[C@](C)(O)C[C@@H](C)CN(C(=O)CCCCCCCCCCC[P+](c2ccccc2)(c2ccccc2)c2cnn(C3CCC3)c2)[C@H](C)[C@@H](O)[C@]1(C)O.[Cl-]` [Example 4, (1-cyclobutyl-1H-pyrazol-4-yl)({12-[(2R,3S,4R,5R,8R,10R,11R,12S,13S,14R)-11-{[(2S,3R,4S,6R)-4-(dimethylamino)-3-hydroxy-6-methyloxan-2-yl]oxy}-2-ethyl-3,4,10-trihydroxy-13-{[(2R,4R,5S,6S)-5-hydroxy-4-methoxy-4,6-dimethyloxan-2-yl]oxy}-3,5,8,10,12,14-hexamethyl-15-oxo-1-oxa-6-azacyclopentadecan-6-yl]-12-oxododecyl})diphenylphosphonium chloride]: for the setting “compound at 10 μM”, the “% Confluence” value came out at 4.4%.

Turning to `CC[C@H]1OC(=O)[C@H](C)[C@@H](O[C@H]2C[C@@](C)(OC)[C@@H](O)[C@H](C)O2)[C@H](C)[C@@H](O[C@@H]2O[C@H](C)C[C@H](N(C)C)[C@H]2O)[C@](C)(O)C[C@@H](C)CN(C(=O)CCCCCCC[P+](c2cc(C)cc(C)c2)(c2cc(C)cc(C)c2)c2cnn(C(C)C)c2)[C@H](C)[C@@H](O)[C@]1(C)O.[Cl-]` [Example 5, {8-[(2R,3S,4R,5R,8R,10R,11R,12S,13S,14R)-11-{[(2S,3R,4S,6R)-4-(dimethylamino)-3-hydroxy-6-methyloxan-2-yl]oxy}-2-ethyl-3,4,10-trihydroxy-13-{[(2R,4R,5S,6S)-5-hydroxy-4-methoxy-4,6-dimethyloxan-2-yl]oxy}-3,5,8,10,12,14-hexamethyl-15-oxo-1-oxa-6-azacyclopentadecan-6-yl]-8-oxooctyl}bis(3,5-dimethylphenyl)[1-(propan-2-yl)-1H-pyrazol-4-yl]phosphonium chloride], the “% Confluence” value (compound at 10 μM) worked out at 23.1%.

As for `CC[C@H]1OC(=O)[C@H](C)[C@@H](O[C@H]2C[C@@](C)(OC)[C@@H](O)[C@H](C)O2)[C@H](C)[C@@H](O[C@@H]2O[C@H](C)C[C@H](N(C)C)[C@H]2O)[C@](C)(O)C[C@@H](C)CN(C(=O)CCCCCC[P+](c2cc(C)cc(C)c2)(c2cc(C)cc(C)c2)c2cnn(C(C)C)c2)[C@H](C)[C@@H](O)[C@]1(C)O.[Cl-]` [Example 6, {7-[(2R,3S,4R,5R,8R,10R,11R,12S,13S,14R)-11-{[(2S,3R,4S,6R)-4-(dimethylamino)-3-hydroxy-6-methyloxan-2-yl]oxy}-2-ethyl-3,4,10-trihydroxy-13-{[(2R,4R,5S,6S)-5-hydroxy-4-methoxy-4,6-dimethyloxan-2-yl]oxy}-3,5,8,10,12,14-hexamethyl-15-oxo-1-oxa-6-azacyclopentadecan-6-yl]-7-oxoheptyl}bis(3,5-dimethylphenyl)[1-(propan-2-yl)-1H-pyrazol-4-yl]phosphonium chloride], the “% Confluence” value (compound at 10 μM) is 15.3%.

For `CC[C@H]1OC(=O)[C@H](C)[C@@H](O[C@H]2C[C@@](C)(OC)[C@@H](O)[C@H](C)O2)[C@H](C)[C@@H](O[C@@H]2O[C@H](C)C[C@H](N(C)C)[C@H]2O)[C@](C)(O)C[C@@H](C)CN(C(=O)CCCCCC[P+](c2cc(C)cc(C)c2)(c2cc(C)cc(C)c2)c2cc(C)cc(C)c2)[C@H](C)[C@@H](O)[C@]1(C)O.[Cl-]` [Example 7, {7-[(2R,3S,4R,5R,8R,10R,11R,12S,13S,14R)-11-{[(2S,3R,4S,6R)-4-(dimethylamino)-3-hydroxy-6-methyloxan-2-yl]oxy}-2-ethyl-3,4,10-trihydroxy-13-{[(2R,4R,5S,6S)-5-hydroxy-4-methoxy-4,6-dimethyloxan-2-yl]oxy}-3,5,8,10,12,14-hexamethyl-15-oxo-1-oxa-6-azacyclopentadecan-6-yl]-7-oxoheptyl}tris(3,5-dimethylphenyl)phosphonium chloride], the “% Confluence” value (compound at 10 μM) was determined as 4.6%.

As for `CC[C@H]1OC(=O)[C@H](C)[C@@H](O[C@H]2C[C@@](C)(OC)[C@@H](O)[C@H](C)O2)[C@H](C)[C@@H](O[C@@H]2O[C@H](C)C[C@H](N(C)C)[C@H]2O)[C@](C)(O)C[C@@H](C)CN(C(=O)CCCCCCCCCCCCC[P+](c2ccccc2)(c2ccccc2)C2CCOCC2)[C@H](C)[C@@H](O)[C@]1(C)O.[Cl-]` [Example 8, {14-[(2R,3S,4R,5R,8R,10R,11R,12S,13S,14R)-11-{[(2S,3R,4S,6R)-4-(dimethylamino)-3-hydroxy-6-methyloxan-2-yl]oxy}-2-ethyl-3,4,10-trihydroxy-13-{[(2R,4R,5S,6S)-5-hydroxy-4-methoxy-4,6-dimethyloxan-2-yl]oxy}-3,5,8,10,12,14-hexamethyl-15-oxo-1-oxa-6-azacyclopentadecan-6-yl]-14-oxotetradecyl}(oxan-4-yl)diphenylphosphonium chloride], the “% Confluence” value (compound at 10 μM) came out at 5.5%.

As for `CC[C@H]1OC(=O)[C@H](C)[C@@H](O[C@H]2C[C@@](C)(OC)[C@@H](O)[C@H](C)O2)[C@H](C)[C@@H](O[C@@H]2O[C@H](C)C[C@H](N(C)C)[C@H]2O)[C@](C)(O)C[C@@H](C)CN(C(=O)CCCCCCCCCCCC[P+](C2CCCC2)(C2CCCC2)C2CCCC2)[C@H](C)[C@@H](O)[C@]1(C)O.[Cl-]` [Example 9, tricyclopentyl({13-[(2R,3S,4R,5R,8R,10R,11R,12S,13S,14R)-11-{[(2S,3R,4S,6R)-4-(dimethylamino)-3-hydroxy-6-methyloxan-2-yl]oxy}-2-ethyl-3,4,10-trihydroxy-13-{[(2R,4R,5S,6S)-5-hydroxy-4-methoxy-4,6-dimethyloxan-2-yl]oxy}-3,5,8,10,12,14-hexamethyl-15-oxo-1-oxa-6-azacyclopentadecan-6-yl]-13-oxotridecyl})phosphonium chloride], for the setting “compound at 10 μM”, the “% Confluence” value was 4%.
